{"source": "patent US20050113427A1", "about": "“Use of peroxynirite scavengers or peroxynitrite formation inhibitors that do not diminish nitric oxide synthesis or activity to reverse or prevent premature vascular senescence” (ArgiNOx, Inc., priority 2001, published 2005)", "key": {"[1]": {"tested_on": "Human umbilical vein endothelial cells (HUVEC)", "assay": "SA β-galactosidase staining of HUVEC grown on glycated collagen (premature senescence)", "format": "cell-based", "settings": "for reversal of premature senescence in HUVECs on GC (SA β-galactosidase staining, FIG. 1): HUVECs on GC 3 days, then compound every 12 hours until staining on day 5, GC dilutions 1:3, 1:6, 1:10 in native collagen; for development of premature senescence (SA β-galactosidase staining) in HUVECs grown on GC: ebselen 1 μmol/L, NOHA 0.1 mmol/L, MnTBAP 2.5 μmol/L, applied day 1, 2 hours after plating, added daily, studied day 3", "experimental": "Detection of SA-β-galactosidase was carried out utilizing the histochemical staining method of Dimitri et al, Proc. Natl. Acad. Sci. USA 92, 9363-9367 as modified by Van der Loo, B., et al, Exp. Cell Res. 241, 309-315 (1998). SA β-galactosidase is a known senescence marker. […] This phenomenon occurred in 12 week and 21 week-old diabetic rats, but was undetectable in age-matched Zucker lean rats (0/24 branches examined).\nHuman umbilical vein endothelial cells (HUVEC) after four passages were plated on glycated collagen with or without the addition of 0.1 mM ebselen. Application was made on day 1, 2 hours after plating. The extent of SA β-galactosidase staining was evaluated on days 3 and 5 of culture on a glycated or native collagen matrix. In addition, to study the reversibility process, HUVEC were plated on glycated collagen for three days (time sufficient to induce premature senescence), and ebselen was added every 12 hours, starting on day 3, and the cells were examined on day 5.\nThese concentrations of compounds were chosen based on preliminary experiments testing effects of a range of concentrations for each compound and selecting the lowest one which was efficient but non-cytotoxic. Ebselen, NOHA, and MnTBAP were each applied on day 1, 2 hours after HUVEC plating, added daily, and cells were studied on day 3. HUVECs grown on both glycated and native matrix were examined for the extent of SA β-galactosidase staining. […] In addition, to test for reversibility of senescence by ebselen, NOHA, or MnTBAP, HUVECs were plated on GC for 3 days (time sufficient to induce premature senescence) and thereafter ebselen (ebs), NOHA, or MnTBAP were added every 12 hours, until SA β-galactosidase staining on day 5. […] Dashed lines show the data obtained in HUVECs cultured on native collagen (NC)."}, "[2]": {"tested_on": "Alzheimer's disease", "assay": "Patient with Alzheimer's disease treated with ebselen or ebselen-class compounds (Example III)", "format": "in vivo, human", "settings": "1-20 mg/kg thrice/day alone or with antioxidant agents and vitamins; two years later", "experimental": "A person with no known medical conditions has been experiencing a sustained loss of short-term memory for the past three years. Their CBC, electrolytes and other plasma metabolites are within normal range. There is no vitamin deficiency, no abnormalities in liver function tests, and no previous history of cerebro-vascular accidents. […] Based on these findings the patient is diagnosed with Alzheimer's disease. Therapy with ebselen or other ebselen-class compounds is initiated at doses of 1-20 mg/kg thrice/day alone or in combination with antioxidant agents and vitamins (e.g., ascorbate, alpha-tocopherol, vitamin B6, vitamin B12, folate (folic acid), carotenoids, coenzyme Q10, phytoestrogens (including isoflavonoids), butylated hydroxytoluene (BHT), butylated hydroxyanisole (BHA) and n-3 polyunsaturated fatty acids (PUFA))."}, "[3]": {"tested_on": "endothelial cells from saphenous vein", "assay": "Artificial vascular graft seeded with endothelial cells cultured with ebselen, implanted in patient (Example VI)", "format": "in vivo, human", "settings": "cells cultured with 10-100 μg/ml at 35° C. for 2-3 weeks; versus patients not receiving ebselen", "experimental": "A person with peripheral vascular disease is undergoing an elective femoral-to-popliteal bypass surgery utilizing an artificial vascular graft. A saphenous vein is obtained to harvest endothelial cells for expansion and seed onto the surface of a graft. Endothelial cells are isolated from the graft and cultured in a medium containing ebselen or ebselen-class compound at a concentration of 10-100 μg/ml at 35° C. for 2-3 weeks, and cells are seeded onto the graft in the continuous presence of the same concentration of ebselen or ebselen-class compound. Thus prepared, the vascular graft is implanted."}, "[4]": {"tested_on": "diabetes mellitus", "assay": "Patient with poorly controlled diabetes mellitus treated with ebselen (Example II)", "format": "in vivo, human", "settings": "ebselen 1-20 mg/kg thrice/day, 6 months later", "experimental": "A patient with type I (alternatively, a patient with type 2) diabetes mellitus, past medical history of myocardial infarction, peripheral vascular disease, hypertension, proteinuria and non-healing foot ulcer, is receiving insulin, but experiences poor therapeutic response. Patient's fasting blood glucose level is 200 mg/dl. Additional laboratory findings include elevated Hgb Alc level (8.5%) as well as one of the following signs of AGE accumulation: elevated level of pentosidine (2.3 pmol/mg) or elevated level of Amadori serum albumin (41 U/ml). (In some cases, renal biopsy will be performed, which will directly disclose the deposition of AGE in the renal parenchyma and increased proportion of SA-beta-galactosidase-stained endothelial cells). […] Similar results are obtained in similar patients who are administered other ebselen-class compounds."}, "[5]": {"tested_on": "end stage renal disease", "assay": "Patient with end stage renal disease on chronic hemodialysis treated with ebselen (Example I)", "format": "in vivo, human", "settings": "ebselen 1-20 mg/kg thrice/day, 6 months later", "source_text": "(In some cases, renal biopsy will be performed, which will directly disclose the deposition of AGE in the renal parenchyma and increased proportion of SA-beta-galactosidase-stained endothelial cells). […] In addition, the patient has their arteriovenous fistula revised 3 times due to clotting and stenosis. The patient is also complaining of a non-healing foot ulcer and intermittent claudication, both signs of peripheral vascular disease. […] Similar results are obtained in similar patients who are administered other ebselen-class compounds."}, "[6]": {"tested_on": "endothelial cells from saphenous vein", "assay": "Artificial heart valve seeded with endothelial cells cultured with ebselen, implanted in patient (Example V)", "format": "in vivo, human", "settings": "cells cultured with 10-100 μg/ml at 35° C. for 2-3 weeks; versus patients not receiving ebselen", "experimental": "A person with a defective heart valve is being prepared for a surgical replacement of the valve with a prosthetic device. A saphenous vein is obtained to harvest endothelial cells for expansion and seeding onto the surface of a artificial valve. Endothelial cells are isolated from the graft and cultured in a medium containing ebselen or ebselen-class compound at a concentration of 10-100 μg/ml at 35° C. for 2-3 weeks and cells are seeded onto the valve in the continuous presence of the same concentration of ebselen or ebselen-class compound. Thus prepared, the artificial valve is implanted."}}}
{"smiles": "N=C(N)NCCC[C@H](N)C(=O)O", "note": "[L-arginine]", "values": [{"measurement": "reversal of premature senescence in HUVECs on GC (SA β-galactosidase staining, FIG. 1)", "setting": "[1]", "result": "reversed senescence at low but not high concentrations of GC"}]}
{"smiles": "O=C(O)c1ccc(/C2=C3\\C=CC(=N3)/C(c3ccc(C(=O)O)cc3)=c3/cc/c4[n]3[Mn]([Cl])[n]3c2ccc3/C(c2ccc(C(=O)O)cc2)=C2/C=CC(=N2)\\C=4c2ccc(C(=O)O)cc2)cc1", "note": "[MnTBAP, [5,10,15,20-tetrakis(4-carboxyphenyl)-porphyrinato]manganese (III) chloride]", "values": [{"measurement": "reversal of premature senescence in HUVECs on GC (SA β-galactosidase staining, FIG. 1)", "setting": "[1]", "result": "able to reverse premature senescence at all dilutions of GC"}, {"measurement": "development of premature senescence (SA β-galactosidase staining) in HUVECs grown on GC", "setting": "[1]", "result": "completely abolished the development of premature senescence"}]}
{"smiles": "N=C(NO)NCCC[C@H](N)C(=O)O", "note": "[NOHA, N^ω-hydroxyl-L-arginine]", "values": [{"measurement": "reversal of premature senescence in HUVECs on GC (SA β-galactosidase staining, FIG. 1)", "setting": "[1]", "result": "able to reverse premature senescence at all dilutions of GC"}, {"measurement": "development of premature senescence (SA β-galactosidase staining) in HUVECs grown on GC", "setting": "[1]", "result": "completely abolished the development of premature senescence"}]}
{"smiles": "O=c1c2ccccc2[se]n1-c1ccccc1", "note": "[ebselen, 2-phenyl-1,2-benzisoselenazol-3(2H)-one]", "values": [{"measurement": "development of premature senescence (SA β-galactosidase staining) in HUVEC grown on glycated collagen", "setting": "[1]; 0.1 mM ebselen applied day 1, 2 hours after plating, evaluated on days 3 and 5", "result": "completely abolished the development of premature senescence"}, {"measurement": "reversal of premature senescence in HUVEC on glycated collagen", "setting": "[1]; HUVEC on glycated collagen 3 days, ebselen added every 12 hours from day 3, examined day 5", "result": "able to reverse premature senescence at all dilutions of glycated collagen"}, {"measurement": "reversal of premature senescence in HUVECs on GC (SA β-galactosidase staining, FIG. 1)", "setting": "[1]", "result": "able to reverse premature senescence at all dilutions of GC"}, {"measurement": "development of premature senescence (SA β-galactosidase staining) in HUVECs grown on GC", "setting": "[1]", "result": "completely abolished the development of premature senescence"}, {"measurement": "symptoms related to the memory loss", "setting": "[2]", "result": "no deterioration and a partial improvement of symptoms related to the memory loss"}, {"measurement": "thrombotic and atheroembolic complications after vascular graft implantation", "setting": "[3]", "result": "less thrombotic and atheroembolic complications"}, {"measurement": "clinical outcome", "setting": "[4]", "result": "significant subjective improvement of coronary symptoms"}, {"measurement": "pentosidine after treatment", "setting": "[4]; before 2.3 pmol/mg", "result": "≤ 1.7", "unit": "pmol/mg"}, {"measurement": "Amadori serum albumin after treatment", "setting": "[4]; before 41 U/ml", "result": "≤ 30", "unit": "U/ml"}, {"measurement": "clinical outcome", "setting": "[5]", "result": "significant subjective improvement of coronary symptoms, renal disease, healing of foot ulcer, normalization of blood pressure"}, {"measurement": "pentosidine after treatment", "setting": "[5]", "result": 1.7, "unit": "pmol/mg"}, {"measurement": "Amodori serum albumin after treatment", "setting": "[5]; before 40 U/ml", "result": 30, "unit": "U/ml"}, {"measurement": "thrombotic and atheroembolic complications after artificial valve implantation", "setting": "[6]", "result": "less thrombotic and atheroembolic complications"}]}
